Data from PMC6632053, “Incorporation of Putative Helix-Breaking Amino Acids in the Design of Novel Stapled Peptides: Exploring Biophysical and Cellular Permeability Properties” (Molecules, 2019).
Read-outs that look alike come from different tables or passages of the source. Bridge positions count the residues as written; N and C are the ends. Square brackets hold non-standard residues; d marks the D form. Peptide text beside a SMILES is read from it. Lys(N3) = [N-]=[N+]=NCCCC[C@H](N)C(=O)O; R8 = C=CCCCCCC[C@@](C)(N)C(=O)O; Cba = N[C@@H](CC1CCC1)C(=O)O; S5 = C=CCCC[C@](C)(N)C(=O)O; Aib = CC(C)(N)C(=O)O; βAla = NCCC(=O)O

Legend:
[1] = system: p53 responsive β-lactamase reporter in HCT116 cells; experiment: p53 beta-lactamase reporter gene cellular functional assay; assay type: cell-based; conditions: p53 reporter assay, HCT116, read-out: Cellular (µM), cellular activity (EC50)
Protocol: HCT116 cells were stably transfected with a p53 responsive β-lactamase reporter and were seeded into a 384-well plate at a density of 8000 cells per well. Cells were maintained in McCoy’s 5A Medium with 10% fetal bovine serum (FBS), Blasticidin, and Penicillin/Streptomycin. The cells were incubated overnight, followed by removal of cell growth media and replacement with Opti-MEM either containing 0% FBS or 10% FBS. […] The final working concentration of DMSO was 0.5%. β-lactamase activity was detected using the ToxBLAzer Dual Screen (Invitrogen), as per the manufacturer’s instructions. Measurements were made using the Envision multiplate reader (Perkin–Elmer).

[2] = Circular dichroism (CD) α-helicity; assay type: physicochemical; conditions: for Helicity (%): Table 2, CD of free peptide, 25 °C, 1 mM Hepes pH 7.4, 5% methanol
Protocol: A total of 5 µL of the 10 mM stock peptide was mixed with 45 µL of 100% methanol, and dried for 2 h in the SpeedVac concentrator (Thermo Scientific). The dried peptide was reconstituted in a buffer (1 mM Hepes pH 7.4 and 5% methanol) to a concentration of 1 mM. The peptide sample was placed in a quartz cuvette with a path length of 0.2 cm. The peptide concentration was determined by the absorbance of the peptide at […]. The CD spectrum was recorded from 300 to 190 nm using the Chirascan-plus qCD machine (Applied Photophysics, Surrey, UK), at 25 °C. All experiments were done in duplicates. The CD spectrum was converted to mean residue ellipticity, before deconvolution and estimation of the secondary structure components of the peptide using the CDNN software (distributed by Applied Photophysics).

human Mdm2 1–125 = target: T1, human Mdm2 1–125 (Homo sapiens, UniProt Q00987); experiment: Mdm2 binding assay (competitive fluorescence anisotropy/polarization); conditions: competitive fluorescence polarization, read-out: Mdm2 (nM), Mdm2 binding (Kd)
T1 construct: GST (N); His6 (internal); TEV cleavage site ENLYFQG (internal); made in house; host or cells: Escherichia coli BL21 (DE3) Rosetta T1R
T1 sequence (Q00987 with tags, fused parts or gaps): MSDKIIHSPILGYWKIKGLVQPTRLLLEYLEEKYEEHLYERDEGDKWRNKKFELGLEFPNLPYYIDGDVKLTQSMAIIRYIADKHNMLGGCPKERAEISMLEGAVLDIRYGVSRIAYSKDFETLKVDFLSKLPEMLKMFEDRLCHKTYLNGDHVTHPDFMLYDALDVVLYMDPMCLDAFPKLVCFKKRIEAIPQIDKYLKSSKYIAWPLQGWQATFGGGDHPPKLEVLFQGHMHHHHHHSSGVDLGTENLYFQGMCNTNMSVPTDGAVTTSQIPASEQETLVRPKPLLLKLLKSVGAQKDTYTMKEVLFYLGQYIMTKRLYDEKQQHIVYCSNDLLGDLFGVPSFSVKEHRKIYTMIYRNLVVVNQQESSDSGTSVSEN
Protocol: The TEV (tobacco etch virus) cleavage site was changed from ENLYFQS to ENLYFQG to give a fusion protein with the following sequence:
Titrations were carried out with the concentration of Mdm2 held constant at 250 nM and the labeled peptide at 50 nM. The competing molecules were then titrated against the complex of the FAM-labeled peptide and protein. Apparent Kd values were determined by fitting the experimental data to the equations shown below:(2) r=r0+(rb−r0)×2(d^2−3e)cos(θ/3)−9/3Kd1+2(d^2−3e)cos(θ/3)−dd=Kd1+Kd2+[L]st+[L]t−[P]te=([L]t−[P]t)Kd1+([L]st−[P]t)Kd2+Kd1Kd2f=−Kd1Kd2[P]tθ=arcos[−2d^3+9de−27f/2(d^2−3e)^3] where [L]st and [L]t denote labeled ligand and total unlabeled ligand input concentrations, respectively. Kd2 is the dissociation constant of the interaction between the unlabeled ligand and the protein. In all competition experiments, it was assumed that [P]t > [L]st, otherwise considerable amounts of free labeled ligand would always be present and would interfere with measurements. Kd1 is the apparent Kd for the labeled peptide used and was experimentally determined as described in the previous paragraph. The FAM-labeled peptide was dissolved in dimethyl sulfoxide (DMSO) at 1 mM and diluted into the experimental buffer. Readings were carried out with an Envision Multilabel Reader (PerkinElmer). Experiments were carried out in PBS (2.7 mM KCl, 137mM NaCl, 10 mM Na2HPO4, and 2 mM KH2PO4 (pH 7.4)) and 0.1% Tween 20 buffer. All titrations were carried out in triplicate. Curve-fitting was carried out using Prism 4.0 (GraphPad). […] Negative control titrations of the ligands under investigation were also carried out with the fluorescently labeled peptide (in the absence of Mdm2) to ensure no interactions were occurring between the ligands and the FAM-labeled peptide.

| SMILES | EC50 ([1]; Table 2) | Helicity (%) [2] | α-helicity by CD [2] | Kd (human Mdm2 1–125; Table 2) | EC50 ([1]; Table 1) | Kd (human Mdm2 1–125; Table 1) |
| --- | --- | --- | --- | --- | --- | --- |
| CC(=O)N[C@@H](CCCCN=[N+]=[N-])C(=O)NCCC(=O)N[C@@H](CC(C)C)C(=O)N[C@H](C(=O)N[C@@H](Cc1ccccc1)C(=O)N[C@]1(C)CCCCCCC=CCCC[C@@](C)(C(=O)N[C@@H](CO)C(=O)N[C@@H](C)C(=O)N[C@@H](C)C(N)=O)NC(=O)[C@H](CC2CCC2)NC(=O)[C@H](CCC(N)=O)NC(=O)C(C)(C)NC(=O)[C@H](Cc2c[nH]c3ccccc23)NC(=O)[C@H](Cc2ccc(O)cc2)NC(=O)[C@H](CCC(=O)O)NC1=O)[C@@H](C)O [A8(Aib)] | 1.5 µM | 37.5% | – | – | – | – |
| CC(=O)N[C@@H](CCCCN=[N+]=[N-])C(=O)NCCC(=O)N[C@@H](CC(C)C)C(=O)N[C@H](C(=O)N[C@@H](Cc1ccccc1)C(=O)N[C@]1(C)CCCCCCC=CCCC[C@@](C)(C(=O)N[C@@H](CO)C(=O)N[C@@H](C)C(=O)N[C@@H](C)C(N)=O)NC(=O)[C@H](CC2CCC2)NC(=O)[C@H](CCC(N)=O)NC(=O)[C@H](C)N(C)C(=O)[C@H](Cc2c[nH]c3ccccc23)NC(=O)[C@H](Cc2ccc(O)cc2)NC(=O)[C@H](CCC(=O)O)NC1=O)[C@@H](C)O [A8(N-methyl L-Ala)] | > 50 µM | 16.9% | < 30% | 671 nM | – | – |
| CC(=O)N[C@@H](CCCCN=[N+]=[N-])C(=O)NCCC(=O)N[C@@H](CC(C)C)C(=O)N[C@H](C(=O)N[C@@H](Cc1ccccc1)C(=O)N[C@]1(C)CCCCCCC=CCCC[C@@](C)(C(=O)N[C@@H](C)C(=O)NC(C)(C)C(=O)N[C@@H](C)C(N)=O)NC(=O)[C@H](CC2CCC2)NC(=O)[C@H](CCC(N)=O)NC(=O)[C@H](C)NC(=O)[C@H](Cc2c[nH]c3ccccc23)NC(=O)[C@H](Cc2ccc(O)cc2)NC(=O)[C@H](CCC(=O)O)NC1=O)[C@@H](C)O [A13(Aib)] (Ac-[Lys(N3)][βAla]LTF[R8]EYWAQ[Cba][S5]A[Aib]A-NH2; staple 6-13) | 0.59 µM | 34.4% | – | – | – | – |
| CC(=O)N[C@@H](CCCCN=[N+]=[N-])C(=O)NCCC(=O)N[C@@H](CC(C)C)C(=O)N[C@H](C(=O)N[C@@H](Cc1ccccc1)C(=O)N[C@]1(C)CCCCCCC=CCCC[C@@](C)(C(=O)N[C@@H](CO)C(=O)N[C@@H](C)C(=O)N(C)[C@@H](C)C(N)=O)NC(=O)[C@H](CC2CCC2)NC(=O)[C@H](CCC(N)=O)NC(=O)[C@H](C)NC(=O)[C@H](Cc2c[nH]c3ccccc23)NC(=O)[C@H](Cc2ccc(O)cc2)NC(=O)[C@H](CCC(=O)O)NC1=O)[C@@H](C)O [A14(N-methyl L-Ala)] | 0.71 µM | 47.5% | – | – | – | – |
| CC(=O)N[C@@H](CC(C)C)C(=O)N[C@H](C(=O)N[C@@H](Cc1ccccc1)C(=O)N[C@]1(C)CCCCCCC=CCCC[C@@](C)(C(=O)N[C@@H](CO)C(=O)N[C@@H](C)C(=O)N[C@@H](C)C(N)=O)NC(=O)[C@@H](CC2CCC2)NC(=O)[C@H](CC(C)C)NC(=O)[C@H](CCC(N)=O)NC(=O)[C@H](Cc2c[nH]c3ccccc23)NC(=O)[C@H](Cc2ccc(O)cc2)NC(=O)[C@H](CCC(=O)O)NC1=O)[C@@H](C)O [Cba10(D-Cba)] | – | – | – | – | 8.1 µM | 1650 nM |
| CC(=O)N[C@@H](CCCCN=[N+]=[N-])C(=O)NCCC(=O)NC(C)(C)C(=O)N[C@H](C(=O)N[C@@H](Cc1ccccc1)C(=O)N[C@]1(C)CCCCCCC=CCCC[C@@](C)(C(=O)N[C@@H](CO)C(=O)N[C@@H](C)C(=O)N[C@@H](C)C(N)=O)NC(=O)[C@H](CC2CCC2)NC(=O)[C@H](CCC(N)=O)NC(=O)[C@H](C)NC(=O)[C@H](Cc2c[nH]c3ccccc23)NC(=O)[C@H](Cc2ccc(O)cc2)NC(=O)[C@H](CCC(=O)O)NC1=O)[C@@H](C)O [L1(Aib)] | 0.49 µM | 42.7% | – | – | – | – |
| CC(=O)N[C@@H](CCCCN=[N+]=[N-])C(=O)NCCC(=O)N(C)[C@@H](C)C(=O)N[C@H](C(=O)N[C@@H](Cc1ccccc1)C(=O)N[C@]1(C)CCCCCCC=CCCC[C@@](C)(C(=O)N[C@@H](CO)C(=O)N[C@@H](C)C(=O)N[C@@H](C)C(N)=O)NC(=O)[C@H](CC2CCC2)NC(=O)[C@H](CCC(N)=O)NC(=O)[C@H](C)NC(=O)[C@H](Cc2c[nH]c3ccccc23)NC(=O)[C@H](Cc2ccc(O)cc2)NC(=O)[C@H](CCC(=O)O)NC1=O)[C@@H](C)O [L1(N-methyl L-Ala)] | 1.49 µM | 47.2% | – | – | – | – |
| CC(=O)N[C@@H](CCCCN=[N+]=[N-])C(=O)NCCC(=O)N(C)[C@@H](CC(C)C)C(=O)N[C@H](C(=O)N[C@@H](Cc1ccccc1)C(=O)N[C@]1(C)CCCCCCC=CCCC[C@@](C)(C(=O)N[C@@H](CO)C(=O)N[C@@H](C)C(=O)N[C@@H](C)C(N)=O)NC(=O)[C@H](CC2CCC2)NC(=O)[C@H](CCC(N)=O)NC(=O)[C@H](C)NC(=O)[C@H](Cc2c[nH]c3ccccc23)NC(=O)[C@H](Cc2ccc(O)cc2)NC(=O)[C@H](CCC(=O)O)NC1=O)[C@@H](C)O [L1(N-methyl L-Leu)] | 0.46 µM | 32.6% | – | – | – | – |
| CC(=O)N[C@@H](CC(C)C)C(=O)N[C@H](C(=O)N[C@@H](Cc1ccccc1)C(=O)N[C@]1(C)CCCCCCC=CCCC[C@@](C)(C(=O)N[C@@H](CO)C(=O)N[C@@H](C)C(=O)N[C@@H](C)C(N)=O)NC(=O)[C@H](CC2CCC2)NC(=O)[C@H](CC(C)C)NC(=O)[C@H](CCC(N)=O)NC(=O)[C@H](C)NC(=O)[C@H](Cc2ccc(O)cc2)NC(=O)[C@H](CCC(=O)O)NC1=O)[C@@H](C)O [Peptide W7A] (Ac-LTF[R8]EYAQL[Cba][S5]SAA-NH2; staple 4-11) | – | – | – | – | 8.8 µM | 5090 nM |
| CC(=O)N[C@@H](CCCCN=[N+]=[N-])C(=O)NCCC(=O)N[C@@H](CC(C)C)C(=O)N[C@H](C(=O)N[C@@H](Cc1ccccc1)C(=O)N[C@]1(C)CCCCCCC=CCCC[C@@](C)(C(=O)N[C@@H](CO)C(=O)N[C@@H](C)C(=O)N[C@@H](C)C(N)=O)NC(=O)[C@H](CC2CCC2)NC(=O)C(C)(C)NC(=O)[C@H](C)NC(=O)[C@H](Cc2c[nH]c3ccccc23)NC(=O)[C@H](Cc2ccc(O)cc2)NC(=O)[C@H](CCC(=O)O)NC1=O)[C@@H](C)O [Q9(Aib)] | 0.25 µM | 28% | – | – | – | – |
| CC(=O)N[C@@H](CCCCN=[N+]=[N-])C(=O)NCCC(=O)N[C@@H](CC(C)C)C(=O)N[C@H](C(=O)N[C@@H](Cc1ccccc1)C(=O)N[C@]1(C)CCCCCCC=CCCC[C@@](C)(C(=O)NC(C)(C)C(=O)N[C@@H](C)C(=O)N[C@@H](C)C(N)=O)NC(=O)[C@H](CC2CCC2)NC(=O)[C@H](CCC(N)=O)NC(=O)[C@H](C)NC(=O)[C@H](Cc2c[nH]c3ccccc23)NC(=O)[C@H](Cc2ccc(O)cc2)NC(=O)[C@H](CCC(=O)O)NC1=O)[C@@H](C)O [S12(Aib)] | 0.25 µM | 37.3% | – | – | – | – |
| CC(=O)N[C@@H](CCCCN=[N+]=[N-])C(=O)NCCC(=O)N[C@@H](CC(C)C)C(=O)NC(C)(C)C(=O)N[C@@H](Cc1ccccc1)C(=O)N[C@]1(C)CCCCCCC=CCCC[C@@](C)(C(=O)N[C@@H](CO)C(=O)N[C@@H](C)C(=O)N[C@@H](C)C(N)=O)NC(=O)[C@H](CC2CCC2)NC(=O)[C@H](CCC(N)=O)NC(=O)[C@H](C)NC(=O)[C@H](Cc2c[nH]c3ccccc23)NC(=O)[C@H](Cc2ccc(O)cc2)NC(=O)[C@H](CCC(=O)O)NC1=O [T2(Aib)] | 2.9 µM | 38.3% | – | – | – | – |
| CC(=O)N[C@@H](CCCCN=[N+]=[N-])C(=O)NCCC(=O)N[C@@H](CC(C)C)C(=O)N(C)[C@H](C(=O)N[C@@H](Cc1ccccc1)C(=O)N[C@]1(C)CCCCCCC=CCCC[C@@](C)(C(=O)N[C@@H](CO)C(=O)N[C@@H](C)C(=O)N[C@@H](C)C(N)=O)NC(=O)[C@H](CC2CCC2)NC(=O)[C@H](CCC(N)=O)NC(=O)[C@H](C)NC(=O)[C@H](Cc2c[nH]c3ccccc23)NC(=O)[C@H](Cc2ccc(O)cc2)NC(=O)[C@H](CCC(=O)O)NC1=O)[C@@H](C)O [T2(N-methyl L-Thr)] | 7.7 µM | 38.2% | – | – | – | – |
